The text below walks through data of patent US4432982A, “Polycyclic compounds substituted on the A-ring, pharmaceutical compositions containing them, and methods of treating psoriasis with them” (Richter Gedeon Vegyeszeti Gyar Rt., priority 1981, dated 1984).

Each structure is given as a SMILES string. Counter-ions that a name gives are not always drawn.

The assay deals with phosphodiesterase isolated from cattle heart. Kind of assay: Phosphodiesterase inhibition, radioisotope method with 3H-c-AMP, enzyme isolated from cattle heart. The conditions noted are these: control without inhibitor = 100%, 20 minutes incubation. It counts as biochemical. On the procedure: The model experiments were performed by means of phosphodiesterase isolated from animal tissues (rat brain, cattle brain, cattle heart). The enzyme was isolated by the technique of J. Schroder and H. V. Richenberg [Biochem. Biophys. […] The measurement was first carried out without the inhibiting substance and then in the presence of one of the compounds of the general formula (I) as an inhibiting agent, after an incubation period of 20 minutes [N.S. Arch. […] A solution of papaverine used as reference material was added to the enzyme preparate in an analogous manner.
The activity of the solutions containing the compounds of formula (I) and papaverine was expressed in percents of the control (enzyme solution without any inhibitor substance, the activity thereof was taken 100%).

The mark [1] stands for this setting: 1 × 10^-5 mole/lit. test compound, 10 µM.
The mark [2] stands for this setting: 5 × 10^-5 mole/lit. test compound, 50 µM.
[3] abbreviates: 5 × 10^-6 mole/lit. test compound, 5 µM.

With `COc1ccc(Cc2nccc3cc(OC)c(OC)cc23)cc1OC` [Papaverine HCl, reference compound], the “effect of the test compound on enzyme activity in % of the control” value (from here on “effect … in % of the control”) is 82.7% under setting [1], 43.7% under setting [2] and 91.3% under setting [3].
In the case of `CC[C@@]12C=C(COC(=O)c3cc(OC)c(OC)c(OC)c3)n3c4c(c5ccc(Br)cc53)CCN(CCC1)[C@H]42` [(-)-11-Bromo-apovincaminol-3',4',5'-trimethoxy-benzoate hydrochloride], the “effect … in % of the control” value stood at 21.8% under setting [1], 21.8% under setting [2] and 31.9% under setting [3].
For `CC[C@@]12C=C(COC(=O)c3cc(OC)c(OC)c(OC)c3)n3c4c(c5cc(Br)ccc53)CCN(CCC1)[C@H]42` [10-Bromo-apovincaminol-3',4',5'-trimethoxy-benzoate], the “effect … in % of the control” value reads like this: under setting [1], 61.8%; under setting [3], 67.8%.
Regarding `CC[C@@]12C=C(COC(=O)c3cc(OC)c(OC)c(OC)c3)n3c4c(c5cc(OC)ccc53)CCN(CCC1)[C@H]42` [10-Methoxy-apovincaminol-3',4',5'-trimethoxybenzoate], the “effect … in % of the control” value is, setting by setting: under setting [1], 40.3%; under setting [2], 21.3%; under setting [3], 59.1%.
